From patent US11524012B1, “Quinolone analogs and their salts, compositions, and method for their use” (Senhwa Biosciences, Inc., priority 2018, dated 2022)

Experiment: Stability study of lyophilized Compound I with mannitol (Method A / Method B samples)
Format: physicochemical
Experimental: […] Each 30 mL Type I, clear glass sample vial with 20 mm Freeze Dry Stoppers (Flurotech™ coated) contained 150 mg of Compound I.
At each time point, a vial was removed from the stored condition and reconstituted with 10 mL of D5W and analyzed by HPLC method as discussed in Example 5 at 1 month, 2 months, 3 months, and/or 6 months. In Tables 18-18e, RRT matches the Compounds as shown below.
Sample Preparation—Method A: 10% Mannitol solution was prepared by weighing 200 g±1.0 g of mannitol into glass beaker, adding approximately 1500 mL of WFI (water for injection) to the beaker and stirring until mannitol was dissolved. The mannitol solution was transferred to a 2 L volumetric flask and made to volume with WFI, then poured back to the original beaker to sir and mix further. 1M HCl solution was prepared by adding 16.4 mL of HCl (37%) to a 200 mL volumetric flask containing approximately 100 mL of WFI, adding WFI to make 200 mL in volume, and inverting to mix the prepared solution.
To a tared 2 L Schott bottle containing a magnetic stirrer and wrapped in aluminum foil, 1020 g±1.0 g of the 10% mannitol solution was added. Then, 58.4 g±0.05 g of the 1M HCl solution was added to the 2 L Schott bottle and stirred for approximately 10 minutes. The solution prepared in the 2 L Schott bottle was purged with nitrogen which was continued throughout the manufacturing process. 30.22 g of Compound I (free base) was weighed then added to the 2 L Schott bottle containing 10% mannitol solution and 1 M HCl solution with continual magnetic stirring. The container used to weigh Compound I was rinsed with 3×10 mL of WFI and added to the Schott bottle. After Compound I dissolved (approximately 40 minutes), additional 650 g of WFI was added to the Schott bottle and the solution was stirred for approximately 10 minutes. The pH of the Compound I solution (in Schott bottle) was measured then adjusted to pH 4.5±0.1 using 1 M HCl solution. After each addition of 1 M HCl solution, the solution was stirred for several minutes prior to verifying the pH. Once the pH was adjusted, nitrogen purging was stopped. The pH adjusted Compound I solution was further diluted with WFI to a target weight of 2040 g±1.0 g and stirred.
The final solution (pH adjusted and diluted) was filtered (chain including PVD Fmembrane filter 0.45 μm and 0.22 μm; peristaltic filtration pump by Watson Marlow) in the Bigneat and the bottle containing the filtered solution was sealed. The filtered solution was pumped (Watson Marlow Flexicon PF6-B pump; 100 RPM) into 30 mL Schott Clear Glass vials (10.0 mL filtered solution each). The glass vials were partially stoppered with 20 mm Freeze Dry Stopper Flurotec (Daikyo Seiko) one vial at a time with sterilized utensils inside a fume hood (Envair B101+1.5R) and placed on freeze dryer trays. The freeze dryer trays were transferred into freeze dry chamber and vial probe was positioned (Lyostar II; FTS Kinetics). Lyophilization was performed using the lyophilization cycle listed below. After lyophilization cycle finished, the vials were back filled with N2 and the stopper was placed in situ, wiped down with isopropanol in the fume hood once removed from the freeze dryer, reconciled, then crimped. Seven vials out of 186 sample vials placed under the lyophilization cycle had smashed in the freeze dryer.
Sample Preparation—Method B (dissolved oxygen content ≤1 ppm): 2 L WFI was poured into a Schott bottled and degassed for 30 minutes with N2 until dissolved oxygen content was ≤1 ppm (dissolved oxygen meter and probe; Mettler Toledo). 10% Mannitol solution was prepared by adding […] of mannitol and 1000 mL of degassed WFI to a tared 2 L Schott bottle containing a magnetic stirrer and wrapped in aluminum foil. To the Schott bottle containing mannitol, 15 mL of 2M HCl was added and stirred for approximately 10 minutes. The resulting solution was sparged with N2 while stirring until dissolved oxygen content was ≤1 ppm (approx. 30 min). […]

[1] = Method A sample, 2-8° C./ambient % RH, 1 month
[2] = Method A sample, 2-8° C./ambient % RH, 2 months
[3] = Method A sample, 2-8° C./ambient % RH, 3 months
[4] = Method A sample, 2-8° C./ambient % RH, 6 months
[5] = Method A sample, 2-8° C./ambient % RH, 9 months
[6] = Method A sample, 2-8° C./ambient % RH, 12 months
[7] = Method A sample, 2-8° C./ambient % RH, 18 months
[8] = Method A sample, 2-8° C./ambient % RH, 24 months
[9] = Method A sample, 2-8° C./ambient % RH, 36 months
[10] = Method A sample, 2-8° C./ambient % RH, Initial
[11] = Method B sample, 5° C, 3 months
[12] = Method B sample, 5° C, 6 months

SMILES: Cc1cnc(CNC(=O)c2c(=O)c3ccc(N4CCCN(C)CC4)nc3n3c2sc2ccccc23)cn1 [Compound I, 2-(4-Methyl-[1,4]diazepan-1-yl)-5-oxo-5H-7-thia-1,11b-diaza-benzo[c]fluorene-6-carboxylic acid (5-methyl-pyrazin-2-ylmethyl)-amide]
- Appearance [1]: White powder
- Appearance (Reconstituted Solution) [1]: Clear, colorless
- Compound I by HPLC assay [1]: 101%
- Reconstitution Time [1]: 54 s
- Related Substances RRT 0.83 [1]: RRT 0.83: 0.41%
- Related Substances RRT 0.88 [1]: RRT 0.88: 0.05%
- Related Substances RRT 0.95A [1]: RRT 0.95A: 0.10%
- Related Substances RRT 0.95B [1]: RRT 0.95B: 0.06%
- Related Substances RRT 1.05 [1]: RRT 1.05: 0.18%
- Related Substances RRT 1.08 [1]: RRT 1.08: 0.17%
- Related Substances Total [1]: Total: 1.0%
- Water Content [1]: 0.16%
- pH [1]: 4.56
- Appearance [2]: White powder
- Appearance (Reconstituted Solution) [2]: Clear, colorless
- Compound I by HPLC assay [2]: 101%
- Reconstitution Time [2]: 55 s
- Related Substances RRT 0.88 [2]: RRT 0.88: 0.06%
- Related Substances RRT 0.95B [2]: RRT 0.95B: 0.06%
- Related Substances RRT 1.05 [2]: RRT 1.05: 0.17%
- Related Substances RRT 1.07 [2]: RRT 1.07: 0.15%
- Related Substances Total [2]: Total: 0.4%
- Water Content [2]: 0.20%
- pH [2]: 4.51
- Appearance [3]: White powder
- Appearance (Reconstituted Solution) [3]: Clear, colorless
- Compound I by HPLC assay [3]: 102%
- Reconstitution Time [3]: 41 s
- Related Substances RRT 0.88 [3]: RRT 0.88: 0.05%
- Related Substances RRT 0.95A [3]: RRT 0.95A: 0.05%
- Related Substances RRT 0.95B [3]: RRT 0.95B: 0.06%
- Related Substances RRT 0.96 [3]: RRT 0.96: 0.06%
- Related Substances RRT 1.05 [3]: RRT 1.05: 0.16%
- Related Substances RRT 1.07 [3]: RRT 1.07: 0.20%
- Related Substances Total [3]: Total: 0.6%
- Water Content [3]: 0.16%
- pH [3]: 4.45
- Appearance [4]: White powder
- Appearance (Reconstituted Solution) [4]: Clear, colorless
- Compound I by HPLC assay [4]: 100%
- Related Substances RRT 0.88 [4]: RRT 0.88: 0.09%
- Related Substances RRT 0.89 [4]: RRT 0.89: 0.05%
- Related Substances RRT 0.95B [4]: RRT 0.95B: 0.08%
- Related Substances RRT 0.96 [4]: RRT 0.96: 0.07%
- Related Substances RRT 1.05 [4]: RRT 1.05: 0.17%
- Related Substances RRT 1.07 [4]: RRT 1.07: 0.28%
- Related Substances Total [4]: Total: 0.7%
- Water Content [4]: 0.64%
- pH [4]: 4.25
- Appearance [5]: White powder
- Appearance (Reconstituted Solution) [5]: Clear, colorless
- Compound I by HPLC assay [5]: 100%
- Related Substances RRT 0.88 [5]: RRT 0.88: 0.06%
- Related Substances RRT 0.95B [5]: RRT 0.95B: 0.06%
- Related Substances RRT 0.96 [5]: RRT 0.96: 0.05%
- Related Substances RRT 0.97 [5]: RRT 0.97: 0.07%
- Related Substances RRT 1.05 [5]: RRT 1.05: 0.17%
- Related Substances RRT 1.07 [5]: RRT 1.07: 0.27%
- Related Substances Total [5]: Total: 0.7%
- Water Content [5]: 0.17%
- pH [5]: 4.46
- Appearance [6]: White powder
- Appearance (Reconstituted Solution) [6]: Clear, colorless
- Compound I by HPLC assay [6]: 101%
- Related Substances RRT 0.88 [6]: RRT 0.88: 0.09%
- Related Substances RRT 0.89 [6]: RRT 0.89: 0.07%
- Related Substances RRT 0.95B [6]: RRT 0.95B: 0.05%
- Related Substances RRT 0.96 [6]: RRT 0.96: 0.10%
- Related Substances RRT 0.97 [6]: RRT 0.97: 0.11%
- Related Substances RRT 1.05 [6]: RRT 1.05: 0.17%
- Related Substances RRT 1.07 [6]: RRT 1.07: 0.45%
- Related Substances Total [6]: Total: 1.0%
- Water Content [6]: 0.20%
- pH [6]: 4.47
- Appearance [7]: White powder
- Appearance (Reconstituted Solution) [7]: Clear, colorless
- Compound I by HPLC assay [7]: 98%
- Related Substances RRT 0.88 [7]: RRT 0.88: 0.05%
- Related Substances RRT 0.95B [7]: RRT 0.95B: 0.05%
- Related Substances RRT 0.96 [7]: RRT 0.96: 0.06%
- Related Substances RRT 0.97 [7]: RRT 0.97: 0.07%
- Related Substances RRT 1.04 [7]: RRT 1.04: 0.05%
- Related Substances RRT 1.05 [7]: RRT 1.05: 0.17%
- Related Substances RRT 1.07 [7]: RRT 1.07: 0.20%
- Related Substances Total [7]: Total: 0.6%
- Water Content [7]: 0.24%
- pH [7]: 4.23
- Appearance [8]: White powder
- Appearance (Reconstituted Solution) [8]: Clear, colorless
- Compound I by HPLC assay [8]: 99%
- Related Substances RPT 0.88 [8]: RPT 0.88: 0.06%
- Related Substances RPT 0.95B [8]: RPT 0.95B: 0.05%
- Related Substances RPT 0.96 [8]: RPT 0.96: 0.06%
- Related Substances RPT 0.97 [8]: RPT 0.97: 0.08%
- Related Substances RRT 0.89 [8]: RRT 0.89: 0.05%
- Related Substances RRT 1.05 [8]: RRT 1.05: 0.17%
- Related Substances RRT 1.07 [8]: RRT 1.07: 0.29%
- Related Substances Total [8]: Total: 0.8%
- Water Content [8]: 0.21%
- pH [8]: 4.37
- Appearance [9]: White powder
- Appearance (Reconstituted Solution) [9]: Clear, colorless
- Compound I by HPLC assay [9]: 101%
- Related Substances RRT 0.88 [9]: RRT 0.88: 0.06%
- Related Substances RRT 0.96 [9]: RRT 0.96: 0.06%
- Related Substances RRT 0.97 [9]: RRT 0.97: 0.06%
- Related Substances RRT 1.05 [9]: RRT 1.05: 0.18%
- Related Substances RRT 1.07 [9]: RRT 1.07: 0.24%
- Related Substances Total [9]: Total: 0.6%
- Water Content [9]: 0.28%
- pH [9]: 4.48
- Appearance [10]: White powder
- Appearance (Reconstituted Solution) [10]: Clear, colorless
- Compound I by HPLC assay [10]: 101.5%
- Related Substances RRT 1.05 [10]: RRT 1.05: 0.18%
- Related Substances RRT 1.06 [10]: RRT 1.06: 0.08%
- Related Substances RRT 1.08 [10]: RRT 1.08: 0.06%
- Related Substances Total [10]: Total: 0.3%
- Water Content [10]: 0.14%
- pH [10]: 4.45
- Appearance (Method B sample, 5° C, 1 month): White powder
- Appearance (Reconstituted Solution) (Method B sample, 5° C, 1 month): Clear, colorless
- Compound I by HPLC assay (Method B sample, 5° C, 1 month): 99.5%
- Reconstitution Time (Method B sample, 5° C, 1 month): 60 s
- Related Substances RRT 1.06 (Method B sample, 5° C, 1 month): RRT 1.06: 0.16%
- Related Substances RRT 1.08 (Method B sample, 5° C, 1 month): RRT 1.08: 0.06%
- Related Substances RRT 1.22 (Method B sample, 5° C, 1 month): RRT 1.22: 0.05%
- Related Substances Total (Method B sample, 5° C, 1 month): Total: 0.3%
- Water Content USP<921 Method 1c> (Method B sample, 5° C, 1 month): 1.51%
- pH (USP<791>) (Method B sample, 5° C, 1 month): 4.4
- Appearance [11]: Off-white powder
- Appearance (Reconstituted Solution) [11]: Clear, colorless
- Compound I by HPLC assay [11]: 101.2%
- Related Substances RRT 0.17 [11]: RRT 0.17: 0.05%
- Related Substances RRT 1.04 [11]: RRT 1.04: 0.08%
- Related Substances RRT 1.05 [11]: RRT 1.05: 0.19%
- Related Substances Total [11]: Total: 0.3%
- Water Content USP<921 Method 1c> [11]: 1.19%
- pH (USP<791>) [11]: 4.5
- Appearance [12]: Off-white powder
- Appearance (Reconstituted Solution) [12]: Clear, colorless
- Compound I by HPLC assay [12]: 100.7%
- Related Substances RRT 1.05 [12]: RRT 1.05: 0.13%
- Related Substances Total [12]: Total: 0.1%
- Water Content USP<921 Method 1c> [12]: 1.25%
- pH (USP<791>) [12]: 4.5
- Appearance (Method B sample, 5° C, Initial): White powder
- Appearance (Reconstituted Solution) (Method B sample, 5° C, Initial): Clear, colorless
- Compound I by HPLC assay (Method B sample, 5° C, Initial): 100.2%
- Related Substances RRT 0.96 (Method B sample, 5° C, Initial): RRT 0.96: 0.05%
- Related Substances RRT 1.04 (Method B sample, 5° C, Initial): RRT 1.04: 0.05%
- Related Substances RRT 1.06 (Method B sample, 5° C, Initial): RRT 1.06: 0.17%
- Related Substances RRT 1.08 (Method B sample, 5° C, Initial): RRT 1.08: 0.06%
- Related Substances Total (Method B sample, 5° C, Initial): Total:0.3%
- Water Content USP<921 Method 1c> (Method B sample, 5° C, Initial): 1.12%
